# Experiments:
# Assay in all cases: relative viability (nuclei count vs DMSO), 5 days (fraction); higher = more cells survive
# BAY61-3606 + Alpelisib = compound: COC1=C(C=C(C=C1)C2=CC3=NC=CN3C(=N2)NC4=C(C=CC=N4)C(=O)N)OC [BAY61-3606] + Cc1nc(NC(=O)N2CCC[C@H]2C(N)=O)sc1-c1ccnc(C(C)(C)C(F)(F)F)c1 [Alpelisib] (partner 2 µM)
# Method in brief: (§1)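 After 5 days of treatment, lung cancer cells in 1536-well plates were fixed and stained in a single step (final 0.05% Triton X-100, 1% formaldehyde, 1 ug/ml Hoechst) and their nuclei counted on 4× images. Treatment had been applied by pin tool the day after seeding as one drug alone or as a fixed anchor-drug dose with five library-drug doses (not always all listed) in √10 steps. Relative viability is the nuclei count of treated wells divided by that of vehicle wells, and values are medians of duplicate plates.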
# [1] = compound: COc1cccc2c1C(=O)c1c(O)c3c(c(O)c1C2=O)C[C@@](O)(C(=O)CO)C[C@@H]3O[C@H]1C[C@H](N)[C@H](O)[C@H](C)O1 [Doxorubicin] + CC(=O)c1c(C)c2cnc(Nc3ccc(N4CCNCC4)cn3)nc2n(C2CCCC2)c1=O [Palbociclib] (partner 0.5 µM)
# Method in brief: as §1
# Doxorubicin + AZD7762 = compound: COc1cccc2c1C(=O)c1c(O)c3c(c(O)c1C2=O)C[C@@](O)(C(=O)CO)C[C@@H]3O[C@H]1C[C@H](N)[C@H](O)[C@H](C)O1 [Doxorubicin] + NC(=O)Nc1cc(-c2cccc(F)c2)sc1C(=O)N[C@H]1CCCNC1 [AZD7762] (partner 0.2 µM)
# Method in brief: as §1
# Doxorubicin + Bortezomib = compound: COc1cccc2c1C(=O)c1c(O)c3c(c(O)c1C2=O)C[C@@](O)(C(=O)CO)C[C@@H]3O[C@H]1C[C@H](N)[C@H](O)[C@H](C)O1 [Doxorubicin] + CC(C)C[C@H](NC(=O)[C@H](Cc1ccccc1)NC(=O)c1cnccn1)B(O)O [Bortezomib] (partner 0.002 µM)
# Method in brief: as §1
Cell Line,relative viability (BAY61-3606 + Alpelisib; first compound 0.02 µM),relative viability (BAY61-3606 + Alpelisib; first compound 0.06325 µM),relative viability (BAY61-3606 + Alpelisib; first compound 0.2 µM),relative viability (BAY61-3606 + Alpelisib; first compound 0.6325 µM),relative viability (BAY61-3606 + Alpelisib; first compound 2 µM),relative viability ([1]; first compound 0.001 µM),relative viability ([1]; first compound 0.003162 µM),relative viability ([1]; first compound 0.01 µM),relative viability ([1]; first compound 0.03162 µM),relative viability ([1]; first compound 0.1 µM),relative viability (Doxorubicin + AZD7762; first compound 0.001 µM),relative viability (Doxorubicin + AZD7762; first compound 0.003162 µM),relative viability (Doxorubicin + AZD7762; first compound 0.01 µM),relative viability (Doxorubicin + AZD7762; first compound 0.03162 µM),relative viability (Doxorubicin + AZD7762; first compound 0.1 µM),relative viability (Doxorubicin + Bortezomib; first compound 0.001 µM),relative viability (Doxorubicin + Bortezomib; first compound 0.003162 µM),relative viability (Doxorubicin + Bortezomib; first compound 0.01 µM),relative viability (Doxorubicin + Bortezomib; first compound 0.03162 µM),relative viability (Doxorubicin + Bortezomib; first compound 0.1 µM)
NCI-H2170,0.775,0.869,0.801,0.857,0.512,0.409,0.389,0.386,0.313,0.447,0.825,0.95,0.792,0.626,0.961,–,–,–,–,–
NCI-H1944,0.911,0.867,0.842,0.703,0.505,0.374,0.293,0.337,0.272,0.353,0.512,0.573,0.451,0.483,0.46,–,–,–,–,–
NCI-H661,0.754,0.571,0.694,0.57,0.689,0.384,0.407,0.396,0.36,0.34,–,–,–,–,–,0.919,0.849,0.836,0.776,0.865
A549,0.81,0.658,0.846,0.718,0.573,–,–,–,–,–,–,–,–,–,–,–,–,–,–,–
SK-MES-1,1.02,0.968,1,0.986,0.7,0.326,0.319,0.321,0.281,0.23,–,–,–,–,–,–,–,–,–,–
NCI-H1650,–,–,–,–,–,0.237,0.317,0.282,0.173,0.145,–,–,–,–,–,0.215,0.185,0.187,0.185,0.168
NCI-H1395,1.16,0.957,1.07,1.04,0.97,0.579,0.618,0.663,0.671,0.575,0.414,0.435,0.421,0.347,0.377,–,–,–,–,–
NCI-H2228,0.702,0.654,0.782,0.736,0.561,0.508,0.914,0.555,0.301,0.184,–,–,–,–,–,0.88,1.05,0.617,0.254,0.124
NCI-H1299,1.05,1.08,1.07,1,1.03,–,–,–,–,–,–,–,–,–,–,1.04,1.03,1.01,1.07,0.962
NCI-H2023,0.614,0.607,0.604,0.6,0.471,0.368,0.368,0.254,0.169,0.0764,–,–,–,–,–,0.456,0.889,0.69,0.152,0.0962
NCI-H522,–,–,–,–,–,0.986,1.19,1.08,0.89,1.04,0.7,0.745,0.967,0.656,0.918,–,–,–,–,–
IA-LM,0.805,–,0.98,0.748,0.661,–,–,–,–,–,–,–,–,–,–,0.819,0.877,0.648,0.404,0.136
SW 900,–,–,–,–,–,–,0.604,0.543,0.452,0.519,–,0.647,0.604,0.45,0.358,–,–,–,–,–
